From US20050137220A1 (Pharmacia Corporation, priority 2003, published 2005)
Counter-ions that a name gives are not always drawn. Like-named read-outs stand apart in the source and are kept apart here.

How the values were obtained:
[1] = biological target: MK-2 (Homo sapiens, UniProt P49137); experiment: Determination of MK-2 IC50 (phosphorylation of HSP-peptide, anion exchange resin capture assay); assay type: biochemical; conditions: additional values are replicate IC50 experiments; mixture of stereoisomers implied unless otherwise noted; read-out: MK-2 Avg. IC50
[2] = system: U937 cells; experiment: U937 Cell TNFα Release Assay; assay type: cell-based, human; conditions: mixture of stereoisomers implied unless otherwise noted
[3] = Homo sapiens, U-937, LPS-stimulated differentiated U937 cells, TNFα by ELISA, read-out: TNF Release Assay Avg. IC50
[4] = Homo sapiens, U-937, 4 h, read-out: TNF Release Assay Avg. IC50, LPS-stimulated differentiated U937 cells, TNFα by ELISA
[5] = Homo sapiens, U-937, 4 h, LPS-stimulated differentiated U937 cells, TNFα by ELISA, read-out: TNF Release Assay Avg. IC50
[6] = Homo sapiens, U-937, read-out: TNF Release Assay Avg. IC50, LPS-stimulated differentiated U937 cells, TNFα by ELISA

Sequence of MK-2 (P49137 whole entry, species assumed): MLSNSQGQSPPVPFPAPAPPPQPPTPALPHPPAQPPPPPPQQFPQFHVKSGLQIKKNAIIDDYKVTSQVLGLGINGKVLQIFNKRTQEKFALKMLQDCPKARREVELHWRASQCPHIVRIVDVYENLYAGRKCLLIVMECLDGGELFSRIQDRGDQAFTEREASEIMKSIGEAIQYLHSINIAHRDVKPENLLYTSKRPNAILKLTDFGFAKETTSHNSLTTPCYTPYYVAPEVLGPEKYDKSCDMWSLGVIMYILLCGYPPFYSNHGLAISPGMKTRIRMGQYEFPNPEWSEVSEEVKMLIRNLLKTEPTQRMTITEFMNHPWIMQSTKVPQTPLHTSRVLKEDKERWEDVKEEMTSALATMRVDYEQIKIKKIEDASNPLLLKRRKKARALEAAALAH

IC50 [1] [µM]	IC50 [2, 5] [µM]	SMILES	other results
2.1		COc1ccc2[nH]c3c(c2c1)CCC/C3=N\O [Example 19, (1E)-6-methoxy-2,3,4,9-tetrahydro-1H-carbazol-1-one oxime]	IC50 [2, 3]: 1.89 µM
25.8	48.4	O=C(O)C1NCCc2c1[nH]c1ccc(OCc3ccncc3)cc21 (stereo not drawn) [Example 85, 6-(pyridin-4-ylmethoxy)-2,3,4,9-tetrahydro-1H-beta-carboline-1-carboxylic acid hydrochloride]	
167	100	CC(=O)Oc1ccc2[nH]c3c(c2c1)CCNC3C(=O)O (stereo not drawn) [Example 156, 6-(acetyloxy)-2,3,4,9-tetrahydro-1H-beta-carboline-1-carboxylic acid trifluoroacetate]	IC50 [2, 3]: 100 µM
13.8	41.3	COc1ccc2[nH]c3c(c2c1)C(C(F)(F)F)CNC3C(=O)O (stereo not drawn) [Example 66, 6-methoxy-4-(trifluoromethyl)-2,3,4,9-tetrahydro-1H-beta-carboline-1-carboxylic acid]	
> 200		COc1ccc2[nH]c3c(=O)n(N)c(=O)[nH]c3c2c1 [Example 266, 3-amino-8-methoxy-1H-pyrimido[5,4-b]indole-2,4(3H,5H)-dione]	IC50 [2, 3]: > 100 µM
15.3	> 100	COC(=O)COc1ccc2[nH]c3c(c2c1)CCNC3C(=O)O (stereo not drawn) [Example 70, 6-(2-methoxy-2-oxoethoxy)-2,3,4,9-tetrahydro-1H-beta-carboline-1-carboxylic acid trifluoroacetate hydrate]	
> 200	88.9	COC(=O)C1NCCc2c1n(C)c1ccc(OC)cc21 (stereo not drawn) [Example 209, methyl 6-methoxy-9-methyl-2,3,4,9-tetrahydro-1H-beta-carboline-1-carboxylate trifluoroacetate]	
> 200	100	CCn1c2c(c3cc(OC)ccc31)CCNC2C(=O)OC (stereo not drawn) [Example 208, methyl 9-ethyl-6-methoxy-2,3,4,9-tetrahydro-1H-beta-carboline-1-carboxylate trifluoroacetate]	
27.7	> 100	CN(C)C(=O)COc1ccc2[nH]c3c(c2c1)CCNC3C(=O)O (stereo not drawn) [Example 86, 6-[2-(dimethylamino)-2-oxoethoxy]-2,3,4,9-tetrahydro-1H-beta-carboline-1-carboxylic acid hydrochloride]	
17.9	17.8	O=C(O)C1NCCc2c1[nH]c1ccc(OCc3cccc(Cl)c3)cc21 (stereo not drawn) [Example 80, 6-[(3-chlorobenzyl)oxy]-2,3,4,9-tetrahydro-1H-beta-carboline-1-carboxylic acid]	
> 200		COc1ccc2[nH]c3c(=O)n(/N=C/c4ccccc4)c(=O)[nH]c3c2c1 [Example 265, 8-methoxy-3-{[(1E)-phenylmethylidene]amino}-1H-pyrimido[5,4-b]indole-2,4(3H,5H)-dione]	IC50 [2, 3]: > 100 µM
127	≥ 100	COc1ccc2[nH]c3c(c2c1)CCNC3c1nnn[nH]1 (stereo not drawn) [Example 143, 6-methoxy-1-(1H-tetraazol-5-yl)-2,3,4,9-tetrahydro-1H-beta-carboline trifluoroacetate hydrate]	
> 200	> 100	O=C(O)C1c2[nH]c3ccccc3c2CCN1C(=O)c1ccc(Cl)cc1 (stereo not drawn) [Example 202, 2-(4-chlorobenzeyl)-2,3,4,9-tetrahydro-1H-beta-carboline-1-carboxylic acid]	
4.52	> 100	COc1ccc2c3c([nH]c2c1)C(C(=O)O)NCC3 (stereo not drawn) [Example 34, 7-methoxy-2,3,4,9-tetrahydro-1H-beta-carboline-1-carboxylic acid]	
15.8	> 100	COc1ccc2[nH]c3c(c2c1)C(C)(C)CNC3C(=O)O (stereo not drawn) [Example 73, 6-methoxy-4,4-dimethyl-2,3,4,9-tetrahydro-1H-beta-carboline-1-carboxylic acid]	
3.52	42.4	COC(=O)c1cccc2c3c([nH]c12)CCNC3=O [Example 29, methyl 1-oxo-2,3,4,5-tetrahydro-1H-pyrido[4,3-b]indole-6-carboxylate]	
8.39	> 100	COc1ccc2[nH]c3c(c2c1)CC(C)(C)NC3C(=O)O (stereo not drawn) [Example 54, 6-methoxy-3,3-dimethyl-2,3,4,9-tetrahydro-1H-beta-carboline-1-carboxylic acid]	
6.9		COc1ccc2[nH]c3c(c2c1)CCCCC3=NO [Example 49]	IC50 [2, 3]: 2.89 µM
15.5	7.68	O=C(O)C1NCCc2c1[nH]c1ccc(OCc3ccccc3Cl)cc21 (stereo not drawn) [Example 72, 6-[(2-chlorobenzyl)oxy]-2,3,4,9-tetrahydro-1H-beta-carboline-1-carboxylic acid trifluoroacetate]	
3.1		COc1ccc2[nH]c3c(c2c1)CCC/C3=N/O [Example 25, (1Z)-6-methoxy-2,3,4,9-tetrahydro-1H-carbazol-1-one oxime]	IC50 [2, 3]: 2.18 µM
> 200	53.2	COC(=O)C1NCC(C)c2c1[nH]c1ccc(OC)cc21 (stereo not drawn) [Example 189, methyl 6-methoxy-4-methyl-2,3,4,9-tetrahydro-1H-beta-carboline-1-carboxylate]	
> 200	13.3	CCCC1CNC(C(=O)OC)c2[nH]c3ccc(OC)cc3c21 (stereo not drawn) [Example 188, methyl 6-methoxy-4-propyl-2,3,4,9-tetrahydro-1H-beta-carboline-1-carboxylate]	
16.7	> 100	O=C(O)C1NCCc2c1[nH]c1ccc(OCCCCl)cc21 (stereo not drawn) [Example 76, 6-(3-chloropropoxy)-2,3,4,9-tetrahydro-1H-beta-carboline-1-carboxylic acid hydrochloride]	
3.6	2.66	COc1ccc2[nH]c3c(c2c1)CCCNC3=O [Example 30, 7-methoxy-3,4,5,10-tetrahydroazepino[3,4-b]indol-1(2H)-one hydrochloride]	
17		COc1ccc2[nH]c3c(c2c1)CCC(C)/C3=N/O (stereo not shown) [Example 78, 6-methoxy-2-methyl-2,3,4,9-tetrahydro-1H-carbazol-1-one oxime]	IC50 [2, 3]: 1.59 µM
17		O/N=C1\CCCc2c1[nH]c1ccc(I)cc21 [Example 77, 6-iodo-2,3,4,9-tetrahydro-1H-carbazol-1-one oxime]	IC50 [2, 3]: 23.2 µM
9.45	97.3	COC(=O)C(Oc1ccc2[nH]c3c(c2c1)CCNC3C(=O)O)c1ccccc1 (stereo not drawn) [Example 57, 6-(2-methoxy-2-oxo-1-phenylethoxy)-2,3,4,9-tetrahydro-1H-beta-carboline-1-carboxylic acid]	
3.24		COc1ccc2[nH]c3c(c2c1)CC(CCCNCCCc1ccccc1)NC3=O (stereo not drawn) [Example 27, 6-methoxy-3-{3-[(3-phenylpropyl)amino]propyl}-2,3,4,9-tetrahydro-1H-beta-carbolin-1-one trifluoroacetate]	IC50 [2, 3]: 8.54 µM
		COc1ccc2[nH]c3c(c2c1)C1CCN(C1)C3C(=O)OC1C(C)(C)CCCC1(C)C (stereo not shown) [Example 152, 2,2,6,6-tetramethylcyclohexyl 7-methoxy-3,4,5,10-tetrahydro-1H-2,5-methanoazepino[3,4-b]indole-1-carboxylate trifluoroacetate]	IC50 [2, 6]: 21.8 µM

SMILES	IC50 [1] [µM]	IC50 [2, 5] [µM]	other results
CCCC1CNC(C(=O)O)c2[nH]c3ccc(OC)cc3c21 (stereo not drawn) [Example 55, 6-methoxy-4-propyl-2,3,4,9-tetrahydro-1H-beta-carboline-1-carboxylic acid]	8.47		IC50 [2, 4]: > 100 µM
COC(=O)C1c2[nH]c3ccc(O)cc3c2CCN1C (stereo not drawn) [Example 129, methyl 6-hydroxy-2-methyl-2,3,4,9-tetrahydro-1H-beta-carboline-1-carboxylate]	98.7		IC50 ([2]; read-out: TNF Release Assay Avg. IC50, LPS-stimulated differentiated U937 cells, TNFα by ELISA): 0.523 µM
O=C(O)C1NCCc2c1[nH]c1ccc(Br)cc21 (stereo not drawn) [Example 89, 6-bromo-2,3,4,9-tetrahydro-1H-beta-carboline-1-carboxylic acid compound with ethanol(1:1) hydrochloride]	28.2		IC50 [2, 4]: > 100 µM
COC(=O)C1NCCc2c1[nH]c1ccc(OCc3ccccc3)cc21 (stereo not drawn) [Example 175, methyl 6-(benzyloxy)-2,3,4,9-tetrahydro-1H-beta-carboline-1-carboxylate hydrochloride]	> 200		IC50 [2, 4]: 26.5 µM
COc1ccc2[nH]c3c(c2c1)CC(CCCNCc1ccccc1)NC3=O (stereo not drawn) [Example 62, 3-[3-(benzylamino)propyl]-6-methoxy-2,3,4,9-tetrahydro-1H-beta-carbolin-1-one trifluoroacetate]	10.5		IC50 [2, 3]: 24.9 µM
COc1ccc2[nH]c3c(c2c1)CC(CCCNCCc1ccccc1)NC3=O (stereo not shown) [Example 18, trifluoroacetate]	2.03		IC50 [2, 6]: 23.7 µM
COc1ccc2[nH]c3c(c2c1)CCN(C)C3C(N)=O (stereo not drawn) [Example 170, 6-methoxy-2-methyl-2,3,4,9-tetrahydro-1H-beta-carboline-1-carboxamide]	> 200		IC50 [2, 4]: > 100 µM
COC(=O)C1c2[nH]c3ccc(OCc4ccccc4)cc3c2CCN1C (stereo not drawn) [Example 176, methyl 6-(benzyloxy)-2-methyl-2,3,4,9-tetrahydro-1H-beta-carboline-1-carboxylate]	> 200		IC50 [2, 4]: 36.4 µM
CCCCOc1ccc2[nH]c3c(c2c1)CCNC3C(=O)O (stereo not drawn) [Example 60, 6-butoxy-2,3,4,9-tetrahydro-1H-beta-carboline-1-carboxylic acid]	10.1	> 100	
